# Test results published in patent US6380181B1, “Synthetic catechol derivatives, method for production and use thereof” (priority 1996, dated 2002).
# Columns and labels:
# Format in all cases: cell-based
# [1] = test system: Pseudomonas aeruginosa SG 137 (carbenicillin-resistant); experiment: Agar diffusion test; conditions: concentration 100 μg/ml; P. aeruginosa SG 137
# [2] = test system: Pseudomonas aeruginosa KW 799 WT (wild type); experiment: Agar diffusion test; conditions: concentration 100 μg/ml; P. aeruginosa KW799/WT
# [3] = test system: Pseudomonas aeruginosa KW 799/61 (penetration mutant); conditions: concentration 100 μg/ml; P. aeruginosa KW799/61
# [4] = test system: Pseudomonas aeruginosa ATCC 27853 (wild type); experiment: Agar diffusion test; conditions: concentration 100 μg/ml; P. aeruginosa ATCC 27853
# [5] = test system: Pseudomonas aeruginosa ATCC 9027 (wild type); experiment: Agar diffusion test; conditions: concentration 100 μg/ml; P. aeruginosa ATCC 9027
# [6] = test system: Pseudomonas aeruginosa NCTC 10662; experiment: Agar diffusion test; conditions: concentration 100 μg/ml; P. aeruginosa NCTC 10662
# [7] = test system: Pseudomonas aeruginosa NCTC 10701; experiment: Agar diffusion test; conditions: concentration 100 μg/ml; P. aeruginosa NCTC 10701
# [8] = test system: Pseudomonas aeruginosa NPS1 (plasmid-coded β-lactamase); conditions: concentration 100 μg/ml; P. aeruginosa NPS 1
# [9] = test system: Pseudomonas aeruginosa Oxa6 (plasmid-coded β-lactamase); conditions: concentration 100 μg/ml; P. aeruginosa OXA 6
# [10] = test system: E. coli DC2 (penetration mutant); conditions: concentration 100 μg/ml
# [11] = test system: E. coli DC0 (wild type); experiment: Agar diffusion test; conditions: concentration 100 μg/ml
# [12] = test system: Klebsiella pneumoniae SG 117; experiment: Agar diffusion test; conditions: concentration 100 μg/ml
# [13] = test system: Stenotrophomonas maltophilia GN 12873; experiment: Agar diffusion test; conditions: concentration 100 μg/ml
# [14] = test system: Stenotrophomonas maltophilia IMET 10402; experiment: Agar diffusion test; conditions: concentration 100 μg/ml
# [15] = test system: Salmonella gallinarum ATCC 9184; conditions: concentration 100 μg/ml; Salmonella galinarum ATCC 9184
# [16] = test system: E. coli ATCC 25922; experiment: Microdilution test (MIC)
# Protocol: (§1) The minimum inhibiting concentrations (MICs) were determined for the following bacterial strains: Pseudomonas aeruginosa NCTC 10701, NCTC 10662, SG 137, ATCC 27853, KW 799 WT and KW 799/61, E. coli DCO, DC2 and ATCC 25922, Serratia marcescens SG 621; Salmonella gallinarum ATCC 9184, Klebsiella pneumoniae ATCC 10031 and SG 117.
# [17] = test system: Klebsiella pneumoniae ATCC 10031; experiment: Microdilution test (MIC)
# Protocol: as §1
# [18] = test system: Pseudomonas aeruginosa ATCC 27853; experiment: Microdilution test (MIC); conditions: Pseudomonas aeruginosa, ATCC27853; P. aeruginosa ATCC 27853
# Protocol: as §1
# [19] = test system: Pseudomonas aeruginosa NCTC 10662; experiment: Microdilution test (MIC); conditions: P. aeruginosa NCTC 10662
# Protocol: as §1
# [20] = test system: Pseudomonas aeruginosa NCTC 10701; experiment: Microdilution test (MIC); conditions: Pseudomonas aeruginosa, NCTC10701; P. aeruginosa NCTC 10701
# Protocol: as §1
# [21] = test system: Pseudomonas aeruginosa SG 137; experiment: Microdilution test (MIC); conditions: P. aeruginosa SG 137
# Protocol: as §1
# [22] = test system: Serratia marcescens SG 621; experiment: Microdilution test (MIC)
# Protocol: as §1
# [23] = test system: E. coli DC0; experiment: Microdilution test (MIC); conditions: E. coli DC0
# Protocol: as §1
# (§2) With the test germs KW 799/WT and /61 of Pseudomonas and DCO and DC2 of E. coli, the effect of improved penetration capacity on the efficacy of the substances was investigated.
# [24] = test system: Pseudomonas aeruginosa KW 799 WT; experiment: Microdilution test (MIC); conditions: P. aeruginosa KW 799/WT
# Protocol: as §1, §2
# [25] = test system: Pseudomonas aeruginosa KW 799/61; experiment: Microdilution test (MIC)
# Protocol: as §1, §2
# [26] = test system: E. coli DC2; experiment: microbe, parasite or virus in culture
# Protocol: as §1, §2
# [27] = test system: Salmonella gallinarum ATCC 9184; experiment: microbe, parasite or virus in culture; conditions: Salmonella enterica; Salmonella gallinarum ATCC9184; read-out: MIC values, microdilution test
# Protocol: as §1
# [28] = test system: Stenotrophomonas maltophilia GN 12873; experiment: Microdilution test (MIC)
# [29] = test system: E. coli mutant KB4 ompF−
# Text: (§3) The efficacy against β-lactamase formers and against multi-resistant germs is therefore due to a new type of mechanism for overcoming the penetration resistance, by means of which the ratio of active ingredient to enzyme in the bacterial cell is influenced so that not all antibiotic molecules are inactivated before they reach their target.
# [30] = test system: E. coli mutant KB5 ompC−
# Text: as §3
# [31] = test system: E. coli mutant PLB3268 ompF++; conditions: E. coli mutant PLB3268 ompF++ (ompF super-expressed)
# Text: as §3
# PLB268: ompF- was super-expressed.
# [32] = test system: E. coli AB 2847
# Text: (§4) In the indicator mutants, the synthesis of the respective siderophores, e.g. pyoverdin, pyochelin, enterobactin, aerobactin or yersiniabactin, or the biosynthesis of aromatic compounds, is blocked, or there is a lack of receptors for enterobactin, pyochelin or pyoverdin and for other important components for the bacterial transport of iron (e.g. the membrane proteins Cir, Fiu, FepA and TonB). Under conditions where there is a lack of iron, these mutants therefore cannot grow or can only grow to a very slight extent. In particular, the following indicator mutants were used: Pseudomonas aeruginosa PAO 6609, K 407, 690; E. coli AB 2847, Salmonella typhimurium enb-7, TA 270; Klebsiella pneumoniae KN 4401; Yersinia enterocolitica WAH; Proteus mirabilis 12 (wild); Proteus vulgaris 718 (wild) and Morganella morganii SBK3 (wild). […] The controls used were ferrioxamine E for the Pseudomonas strains, ferrioxamine G and enterobactin for the Salmonella strains, ferrichrome for the E. coli, Klebsiella and Y. enterocol. strains, and 3,4-dihydroxybenzylidene-2,4,6-trimethylaniline for Morganella morganii (see the above literature reference by R. Reissbrodt et al.).
# (§5) The annotations + and (+) relate to non-specific promotion of growth.
# [33] = test system: Klebsiella pneumoniae KN 4401; conditions: Klebsiella KN 4401
# Text: as §4, §5
# [34] = test system: Morganella morganii SBK3 (wild)
# Text: as §4, §5
# [35] = test system: Proteus mirabilis 12 (wild)
# Text: as §4, §5
# [36] = test system: Proteus vulgaris 718 (wild)
# Text: as §4, §5
# [37] = test system: Pseudomonas aeruginosa 690
# Text: as §4, §5
# [38] = test system: Pseudomonas aeruginosa K 407; conditions: Pseudomonas aeruginosa K407
# Text: as §4, §5
# [39] = test system: Pseudomonas aeruginosa PAO 6609
# Text: as §4, §5
# [40] = test system: Salmonella typhimurium TA 2700
# Text: as §4, §5
# [41] = test system: Salmonella typhimurium enb-7
# Text: as §4, §5
# [42] = test system: Yersinia enterocolitica WAH; conditions: Y. enterocol. WAH
# Text: as §4, §5
# [43] = test system: E. coli mutant BR185 tonB−
# [44] = test system: E. coli AB2847 tonB+
# [45] = Escherichia coli, read-out: MIC values, microdilution test
smiles,measurement,setting,value
"CC1(C)S[C@@H]2[C@H](NC(=O)[C@H](N)c3ccccc3)C(=O)N2[C@H]1C(=O)O [Ampicillin, reference compound]",inhibition spot diameter in the agar diffusion test,[1],0 mm
same,inhibition spot diameter in the agar diffusion test,[2],0 mm
same,inhibition spot diameter in the agar diffusion test,[3],41 mm
same,inhibition spot diameter in the agar diffusion test,[4],0 mm
same,inhibition spot diameter in the agar diffusion test,[5],0 mm
same,inhibition spot diameter in the agar diffusion test,[6],0 mm
same,inhibition spot diameter in the agar diffusion test,[7],0 mm
same,inhibition spot diameter in the agar diffusion test,[8],0 mm
same,inhibition spot diameter in the agar diffusion test,[9],0 mm
same,inhibition spot diameter in the agar diffusion test,[10],32 mm
same,inhibition spot diameter in the agar diffusion test,[11],22 mm
same,inhibition spot diameter in the agar diffusion test,[12],19 mm
same,inhibition spot diameter in the agar diffusion test,[13],0 mm
same,inhibition spot diameter in the agar diffusion test,[14],0 mm
same,inhibition spot diameter in the agar diffusion test,[15],34 mm
same,MIC,"[16]; Escherichia coli, ATCC25922",6.25 µg/mL
same,MIC,[17]; ATCC10031,50 µg/mL
same,MIC,[18],> 100 µg/mL
same,MIC,"[19]; Pseudomonas aeruginosa, NCTC10662",> 100 µg/mL
same,MIC,[20],> 100 µg/mL
same,MIC,"[21]; Pseudomonas aeruginosa, SG137",> 100 µg/mL
same,MIC,[22]; SG621,25 µg/mL
same,MIC,[23]; [45],6.25 µg/mL
same,MIC,"[24]; Pseudomonas aeruginosa, KW799WT",> 100 µg/mL
same,MIC,"[25]; Pseudomonas aeruginosa, KW799/61, P. aeruginosa KW 799/61",0.4 µg/mL
same,MIC,[26]; [45],1.56 µg/mL
same,MIC,[27],0.2 µg/mL
same,MIC,[28]; GN12873,> 100 µg/mL
same,inhibition spot diameter in agar diffusion test,[29],10 mm
same,inhibition spot diameter in agar diffusion test,[30],9.5 mm
same,inhibition spot diameter in agar diffusion test,[31],17.5 mm
O=C(O)c1ccc(O)c(N=Cc2cccc(O)c2O)c1 [Substance 3],Growth areas of siderophore indicator strains (diameter),[32],22 mm
same,Growth areas of siderophore indicator strains (diameter),[33],32 mm
same,Growth areas of siderophore indicator strains (diameter),[34],20 mm
same,Growth areas of siderophore indicator strains (diameter),[35],18 mm
same,Growth areas of siderophore indicator strains (diameter),[36],18 mm
same,Growth areas of siderophore indicator strains (diameter),[37],0 mm
same,Growth areas of siderophore indicator strains (diameter),[38],0 mm
same,Growth areas of siderophore indicator strains (diameter),[39],0 mm
same,Growth areas of siderophore indicator strains (diameter),[40],0 mm
same,Growth areas of siderophore indicator strains (diameter),[41],28 mm
same,Growth areas of siderophore indicator strains (diameter),[42],0 mm
O=C(O)c1ccc(N=Cc2cccc(O)c2O)c(O)c1 [Substance 5],Growth areas of siderophore indicator strains (diameter),[32],15 mm
same,Growth areas of siderophore indicator strains (diameter),[33],0 mm
same,Growth areas of siderophore indicator strains (diameter),[34],21 mm
same,Growth areas of siderophore indicator strains (diameter),[35],19 mm
same,Growth areas of siderophore indicator strains (diameter),[36],21 mm
same,Growth areas of siderophore indicator strains (diameter),[37],0 mm
same,Growth areas of siderophore indicator strains (diameter),[38],0 mm
same,Growth areas of siderophore indicator strains (diameter),[39],0 mm
same,Growth areas of siderophore indicator strains (diameter),[40],0 mm
same,Growth areas of siderophore indicator strains (diameter),[41],0 mm
same,Growth areas of siderophore indicator strains (diameter),[42],0 mm
"O=C(O)c1cc(O)c(O)c(C=NNC(=O)c2cccc(O)c2O)c1 [Substance 13, 3-formyl-4,5-dihydroxybenzoic Acid-(2,3-dihydroxy-benzhydrazone)]",Growth areas of siderophore indicator strains (diameter),[33],15 mm
same,Growth areas of siderophore indicator strains (diameter),[34],24 mm
same,Growth areas of siderophore indicator strains (diameter),[35],23 mm
same,Growth areas of siderophore indicator strains (diameter),[36],23 mm
same,Growth areas of siderophore indicator strains (diameter),[37],10 mm
same,Growth areas of siderophore indicator strains (diameter),[38],11 mm
same,Growth areas of siderophore indicator strains (diameter),[39],10 mm
same,Growth areas of siderophore indicator strains (diameter),[40],23 mm
same,Growth areas of siderophore indicator strains (diameter),[41],18 mm
same,Growth areas of siderophore indicator strains (diameter),[42],10 mm
CC(=O)Oc1cccc(C(=O)Nc2ccc(C(=O)N[C@@H](C(=O)N[C@@H]3C(=O)N4[C@@H]3SC(C)(C)[C@@H]4C(=O)O)c3ccccc3)cc2)c1OC(C)=O [Substance 29],inhibition spot diameter in the agar diffusion test,[1],28 mm
same,inhibition spot diameter in the agar diffusion test,[2],27 mm
same,inhibition spot diameter in the agar diffusion test,[3],33 mm
same,inhibition spot diameter in the agar diffusion test,[5],21 mm
same,inhibition spot diameter in the agar diffusion test,[7],23 mm
same,inhibition spot diameter in the agar diffusion test,[8],12 mm
same,inhibition spot diameter in the agar diffusion test,[9],13 mm
same,inhibition spot diameter in the agar diffusion test,[10],28 mm
same,inhibition spot diameter in the agar diffusion test,[11],22 mm
same,inhibition spot diameter in the agar diffusion test,[12],15 mm
same,inhibition spot diameter in the agar diffusion test,[13],19 mm
same,inhibition spot diameter in the agar diffusion test,[14],23 mm
same,inhibition spot diameter in the agar diffusion test,[15],22 mm
same,"MIC values, microdilution test",[16],100 µg/mL
same,"MIC values, microdilution test",[17],50 µg/mL
same,"MIC values, microdilution test",[19],12.5 µg/mL
same,"MIC values, microdilution test",[21],0.78 µg/mL
same,"MIC values, microdilution test",[22],25 µg/mL
same,"MIC values, microdilution test",[23],50 µg/mL
same,"MIC values, microdilution test",[24],3.12 µg/mL
same,"MIC values, microdilution test",[25],0.4 µg/mL
same,"MIC values, microdilution test",[26],1.56 µg/mL
same,"MIC values, microdilution test",[28],12.5 µg/mL
same,inhibition spot diameter in agar diffusion test,[29],9.5 mm
same,inhibition spot diameter in agar diffusion test,[30],7 mm
same,inhibition spot diameter in agar diffusion test,[31],14 mm
same,inhibition spot diameter in agar diffusion test,[43],0 mm
same,inhibition spot diameter in agar diffusion test,[44],6 mm
